From patent US20160272635A1, “SUBSTITUTED DIHYDROPYRIDO[3,4-B]PYRAZINONES AS DUAL INHIBITORS OF BET PROTEINS AND POLO-LIKE KINASES” (BAYER PHARMA AKTIENGESELLSCHAFT, priority 2013, published 2016)
Where two headings read alike, the source gives them in different places.

How the values were obtained:
[1] = target: T1, BRD4 bromo domain 1 [BRD4(1)] (Homo sapiens, UniProt O60885); assay: BRD4(1)/acetylated peptide H4 binding assay (TR-FRET); details: inhibition of interaction between BRD4(1) and acetylated histone H4 peptide
T1 construct: N-terminally His6-tagged BRD4(1) (amino acids 67-152); made in house; host or cells: E. coli
Description: To assess the BRD4(1) binding strength of the substances described in this application, the ability thereof to inhibit the interaction between BRD4(1) and acetylated histone H4 in a dose-dependent manner was quantified.
For this purpose, a time-resolved fluorescence resonance energy transfer (TR-FRET) assay was used, which measures the binding between N-terminally His6-tagged BRD4(1) (amino acids 67-152) and a synthetic acetylated histone H4 (Ac-H4) peptide with sequence GRGK(Ac)GGK(Ac)GLGK(Ac)GGAK(Ac)RHGSGSK-biotin. The recombinant BRD4(1) protein produced in-house according to Filippakopoulos et al., Cell, 2012, 149:214-231 was expressed in E. coli and purified by means of (Ni-NTA) affinity and (Sephadex G-75) size exclusion chromatography. The Ac-H4 peptide can be purchased, for example, from Biosyntan (Berlin, Germany).
In the assay, typically 11 different concentrations of each substance (0.1 nM, 0.33 nM, 1.1 nM, 3.8 nM, 13 nM, 44 nM, 0.15 μM, 0.51 μM, 1.7 μM, 5.9 μM and 20 μM) were analysed as duplicates on the same microtitre plate. For this purpose, 100-fold concentrated solutions in DMSO were prepared by serial dilutions (1:3.4) of a 2 mM stock solution into a clear, 384-well microtitre plate (Greiner Bio-One, Frickenhausen, Germany). From this, 50 n1 were transferred into a black test plate (Greiner Bio-One, Frickenhausen, Germany). The test was started by the addition of 2 μl of a 2.5-fold concentrated BRD4(1) solution (final concentration typically 10 nM in the 5 μl of reaction volume) in aqueous assay buffer [50 mM HEPES pH 7.5, 50 mM sodium chloride (NaCl), 0.25 mM CHAPS and 0.05% serum albumin (BSA)] to the substances in the test plate. This was followed by a 10-minute incubation step at 22° C. for the pre-equilibration of putative complexes between BRD4(1) and the substances.
The mixture was then incubated in the dark at 22° C. for one hour and then at 4° C. for at least 3 hours and for no longer than overnight. The formation of BRD4(1)/Ac-H4 complexes was determined by the measurement of the resonance energy transfer from the streptavidin-Eu cryptate to the anti-6His-XL665 antibody present in the reaction. For this purpose, the fluorescence emission was measured at 620 nm and 665 nm after excitation at 330-350 nm in a TR-FRET measuring instrument, for example a Rubystar or Pherastar (both from BMG Lab Technologies, Offenburg, Germany) or a Viewlux (Perkin-Elmer). The ratio of the emissions at 665 nm and at 622 nm was taken as an indicator of the amount of BRD4(1)/Ac-H4 complexes formed.
The data (ratios) obtained were normalized, with 0% inhibition corresponding to the mean from the measurements for a set of controls (typically 32 data points) in which all the reagents were present. In these, in place of test substances, 50 nl of DMSO (100%) were used Inhibition of 100% corresponded to the mean from the measurements for a set of controls (typically 32 data points) in which all the reagents except BRD4(1) were present. The IC50 was determined by regression analysis based on a 4-parameter equation (minimum, maximum, IC50, Hill; Y=Max+(Min−Max)/(1+(X/IC50)Hill).

Plk-1 = target: T2, Plk-1 (Homo sapiens, UniProt P53350); assay: Plk-1 enzyme assay (indirect HTRF kinase assay); type: biochemical
T2 construct: Recombinant fusion protein consisting of GST and Plk (kinase domain 33-345); MW 36 kDa; GST; made in house; host or cells: insect cells (Hi5)
T2 sequence (P53350 33-345): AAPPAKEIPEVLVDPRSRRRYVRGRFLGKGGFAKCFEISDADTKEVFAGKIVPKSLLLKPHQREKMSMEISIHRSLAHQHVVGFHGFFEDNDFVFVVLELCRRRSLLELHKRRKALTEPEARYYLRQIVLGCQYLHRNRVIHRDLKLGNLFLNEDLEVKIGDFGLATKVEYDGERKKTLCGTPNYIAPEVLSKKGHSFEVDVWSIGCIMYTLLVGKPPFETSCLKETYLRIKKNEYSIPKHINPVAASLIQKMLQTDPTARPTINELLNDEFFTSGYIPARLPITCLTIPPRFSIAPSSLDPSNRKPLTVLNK
Description: Recombinant fusion protein consisting of GST and Plk (kinase domain 33-345; MW 36 kDa, conc 0.8 μg/μl) expressed from insect cells (Hi5) and purified by glutathione Sepharose affinity chromatography and subsequent gel filtration (Superdex 75) is used for the kinase assay. Aliquots thereof are frozen in liquid nitrogen and stored at −80° C. and, after thawing, used only once.
The assay used is an indirect HTRF assay which employs the following materials and procedures. The substrate used for the kinase reaction is the biotinylated peptide Btn-Ahx-KKLNRTLSFAEPG-amide x TFA from Biosyntan, Sample No.: 6178.1 (C-terminus in amide form). This is an artificial sequence not derived from any known protein. 50 nl of the test compounds dissolved in 100% dimethyl sulphoxide (DMSO) (final concentrations: 0 μM and concentrations in the range of 0.001-20 μM) are pre-incubated with 2 μl Plk-1 enzyme working solution in working buffer [25 mM MgCl2; 1 mM DTT; 50 mM Hepes pH 7.0; 0.01% NP40; 1× Complete; 0.05% BSA] for 30 min. The kinase reaction is then initiated by addition of 3 μl of substrate solution [adenosine triphosphate (ATP) and 1.4 μM substrate peptide (biotin-Ttds-KKLNRTLSFAEPG-NH2)] in working buffer, and, after 30 min, stopped by addition of a stopper solution (100 mM EDTA, 100 mM Hepes pH 7.5, 800 mM potassium fluoride, 0.12% BSA, 0.4 μM SA-XLent (0.05 μM, from CIS bio international, Marcoule, France), Eu^3+ cryptate-conjugated rabbit anti-mouse IgG (1.5 nM; an anti-mouse IgG antibody labelled with europium cryptate from CIS bio international, Marcoule, France), 1 nM anti-phospho-serine kinase (a phospho-specific antibody from Upstate Biotechnology, Dundee, Scotland), and incubated at 4° C. overnight.
For the test at low ATP concentration, a 1.25 ng/μl Plk-1 working solution and 16.7 μM ATP are used, for the test at high ATP concentration, a 0.039 ng/μl Plk-1 working solution and 16.7 mM ATP are used.
The amount of phosphorylated substrate peptide is then determined by measuring the resonance energy transfer from europium-labelled antibody complex to streptavidine-XLent. To this end, the fluorescence emission at 620 nm and 665 nm is measured following excitation at 350 nm in an HTRF measuring instrument, e.g. Rubystar (BMG Labtechnologies, Offenburg, Germany) or Viewlux (Perkin-Elmer). The ratio of the emissions at 665 nm and at 620 nm is taken as a measure of the amount of phosphorylated substrate peptide. The data are normalized (enzyme reaction without inhibitor=0% inhibition, all other assay components, but no enzyme=100% inhibition), and IC50 values are calculated using a 4 parameter equation (minimum, maximum, IC50, Hill; Y=max+(min−max)/(1+(X/IC50)Hill)).

MOLM-13 cell line = assay: MOLM-13 cell proliferation assay (alamarBlue); type: cell-based; details: Homo sapiens; MOLM-13 cells, 96 hours incubation, inhibition of cell proliferation
Description: In accordance with the invention, the substances were tested for their ability to inhibit the proliferation of the MOLM-13 cell linie (Deutsche Sammlung far Mikroorganismen and Zellkulturen [German Collection of Microorganisms and Cell Cultures], ACC 554). Cell viability was determined by means of the alamarBlue® reagent (Invitrogen) in a Victor X3 Multilabel Reader (Perkin Elmer). The excitation wavelength was 530 nm and the emission wavelength […].
The MOLM-13 cells were shown at a density of 4000 cells/well in 100 μl of growth medium on 96-well microtitre plates. After overnight incubation at 37° C., the fluorescence values (CI values) were determined. The plates were then treated with various substance dilutions and incubated at 37° C. for 96 hours. Subsequently, the fluorescence values were determined (CO values). For the data analysis, the CI values were subtracted from the CO values and the results were compared between cells which had been treated with various dilutions of the substance or only with buffer solution. The IC50 values (substance concentration needed for 50% inhibition of cell proliferation) were calculated therefrom.

[2] = 10 μM ATP (low ATP concentration), read-out: IC50 [Plk-1] (10 μM ATP)
[3] = 10 mM ATP (high ATP concentration), read-out: IC50 [Plk-1] (10 mM ATP)

Row | SMILES | IC50 [1] [nM] | IC50 (Plk-1; [2]) [nM] | IC50 (MOLM-13 cell line) [nM] | IC50 (Plk-1; [3]) [nM]
1 | COc1cc(C(=O)NC2CC2)cnc1Nc1cc2c(cn1)N(C)C(=O)C(C)N2C1CCCC1 (stereo not shown) [Example 1, 6-{[1-Cyclopentyl-2,4-dimethyl-3-oxo-1,2,3,4-tetrahydropyrido[3,4-b]pyrazin-7-yl]amino}-N-cyclopropyl-5-methoxypyridine-3-carboxamide] | 204 | 15 | 209 | 
2 | COc1cc(C(=O)NC2CC2)cnc1Nc1cc2c(cn1)N(C)C(=O)[C@@H](C)N2C1CCCC1 [Example 2, 6-{[(2R)-1-Cyclopentyl-2,4-dimethyl-3-oxo-1,2,3,4-tetrahydropyrido[3,4-b]pyrazin-7-yl]amino}-N-cyclopropyl-5-methoxypyridine-3-carboxamide] | 126 | 17 | 93 | 
3 | COc1cc(C(=O)NC2CCN(C)CC2)cnc1Nc1cc2c(cn1)N(C)C(=O)C(C)N2C1CCCC1 (stereo not shown) [Example 6, 6-[(1-Cyclopentyl-2,4-dimethyl-3-oxo-1,2,3,4-tetrahydropyrido[3,4-b]pyrazin-7-yl)amino]-5-methoxy-N-(1-methylpiperidin-4-yl)pyridine-3-carboxamide] | 243 |  | 114 | 19
4 | CC[C@@H]1C(=O)N(C)c2cnc(Nc3ncc(C(=O)NCC(F)(F)F)cc3OC)cc2N1C1CCCC1 [Example 7, 6-[[(2R)-1-Cyclopentyl-2-ethyl-1,2,3,4-tetrahydro-4-methyl-3-oxopyrido[3,4-b]pyrazin-7-yl]amino]-5-methoxy-N-(2,2,2-trifluoroethyl)-3-pyridinecarboxamide] | 276 | 11 | 80 | 30
5 | CC[C@@H]1C(=O)N(C)c2cnc(Nc3ncc(C(=O)NCCOC)cc3OC)cc2N1C1CCCC1 [Example 8, 6-[[(2R)-1-Cyclopentyl-2-ethyl-1,2,3,4-tetrahydro-4-methyl-3-oxopyrido[3,4-b]pyrazin-7-yl]amino]-5-methoxy-N-(2-methoxyethyl)-3-pyridinecarboxamide] | 333 | 9 | 72 | 22
6 | CC[C@@H]1C(=O)N(C)c2cnc(Nc3ncc(C(=O)NC(C)(C)CO)cc3OC)cc2N1C1CCCC1 [Example 11, 6-[[(2R)-1-Cyclopentyl-2-ethyl-1,2,3,4-tetrahydro-4-methyl-3-oxopyrido[3,4-b]pyrazin-7-yl]amino]-N-(2-hydroxy-1,1-dimethylethyl)-5-methoxy-3-pyridinecarboxamide] | 393 |  | 74 | 57

Continued, values first:

Row | IC50 [1] [nM] | IC50 (Plk-1; [2]) [nM] | IC50 (MOLM-13 cell line) [nM] | IC50 (Plk-1; [3]) [nM] | SMILES
7 | 199 | 8 | 61 | 17 | CCc1cc(C(=O)NC2CC2)cnc1Nc1cc2c(cn1)N(C)C(=O)[C@@H](CC)N2C1CCCC1 [Example 3, 6-{[(2R)-1-Cyclopentyl-2-ethyl-4-methyl-3-oxo-1,2,3,4-tetrahydropyrido[3,4-b]pyrazin-7-yl]amino}-N-cyclopropyl-5-ethylpyridine-3-carboxamide]
8 | 450 |  | 68 | 31 | CCC1C(=O)N(C)c2cnc(Nc3ncc(C(=O)NC4CC4)cc3OC)cc2N1C1CCCC1 (stereo not shown) [Example 4, 6-[(1-Cyclopentyl-2-ethyl-1,2,3,4-tetrahydro-4-methyl-3-oxopyrido[3,4-b]pyrazin-7-yl)amino]-N-cyclopropyl-5-methoxy-3-pyridinecarboxamide]
9 | 225 | 7 | 29 | 21 | CC[C@@H]1C(=O)N(C)c2cnc(Nc3ncc(C(=O)NC4CC4)cc3OC)cc2N1C1CCCC1 [Example 5, 6-[[(2R)-1-Cyclopentyl-2-ethyl-1,2,3,4-tetrahydro-4-methyl-3-oxopyrido[3,4-b]pyrazin-7-yl)amino]-N-cyclopropyl-5-methoxy-3-pyridinecarboxamide]
10 | 343 |  | 76 | 17 | CCc1cc(C(=O)N[C@@H]2CCCCNC2=O)cnc1Nc1cc2c(cn1)N(C)C(=O)[C@@H](CC)N2C1CCCC1 [Example 9, 6-{[(2R)-1-Cyclopentyl-2-ethyl-4-methyl-3-oxo-1,2,3,4-tetrahydropyrido[3,4-b]pyrazin-7-yl]amino}-5-ethyl-N-[(3R)-2-oxoazepan-3-yl]pyridine-3-carboxamide]
11 | 376 |  | 43 | 31 | CC[C@@H]1C(=O)N(C)c2cnc(Nc3ncc(C(=O)NC4CCOCC4)cc3OC)cc2N1C1CCCC1 [Example 10, 6-[[(2R)-1-Cyclopentyl-2-ethyl-1,2,3,4-tetrahydro-4-methyl-3-oxopyrido[3,4-b]pyrazin-7-yl]amino]-5-methoxy-N-(tetrahydro-2H-pyran-4-yl)-3-pyridinecarboxamide]
